Assay [1] relates to six MCC cell lines and four control cell lines. Put plainly: qHTS cell viability, all 10 cell lines screened. It counts as cell-based. (Quantitative high-throughput screening tests each substance at several concentrations.)
For assay [2], the system named is MKL-2 cells (VP-MCC). Put plainly: qHTS cell viability (CellTiter-Glo, 72 h; primary and follow-up small molecule screen). Type of assay: cell-based, human.
Assay [3] has as its system VP-MCC cell lines (WAGA, MKL-1, MKL-2). As to the kind of experiment: qHTS cell viability, VP-MCC cell lines as a group (mean AUC, VP.MCC.avg). Type of assay: cell-based, human.
Assay [4] deals with MCC13 cells (VN-MCC). As to the kind of experiment: qHTS cell viability (CellTiter-Glo, 72 h; primary and follow-up small molecule screen). Type of assay: cell-based, human.
Assay [5] has as its system HEK293T cells. As to the kind of experiment: qHTS cell viability (CellTiter-Glo, 72 h; primary screen), control cell line. It counts as cell-based, human.
The test system of assay [6] is MCC cell lines (WAGA, MKL-1, MKL-2, MCC13, MCC26, UISO). Put plainly: qHTS cell viability, all six MCC cell lines as a group (mean AUC, MCC.avg). It counts as cell-based, human.
In assay [7] the test system is VN-MCC cell lines (MCC13, MCC26, UISO). As to the kind of experiment: qHTS cell viability, VN-MCC cell lines as a group (mean AUC, VN.MCC.avg). It counts as cell-based, human.
The test system of assay [8] is control cell lines (HACAT, HEK293T, CRL-7250, NIH-3T3). Put plainly: qHTS cell viability, control cell lines as a group (mean AUC, Control.avg). It counts as cell-based.
The subject of assay [9] is UISO cells (VN-MCC). As to the kind of experiment: qHTS cell viability (CellTiter-Glo, 72 h; primary and follow-up small molecule screen). Type of assay: cell-based, human.
Assay [10] has as its system NIH-3T3 cells. As to the kind of experiment: qHTS cell viability (CellTiter-Glo, 72 h; primary screen), control cell line. Type of assay: cell-based, mouse.
Assay [11] relates to MCC26 cells (VN-MCC). Put plainly: qHTS cell viability (CellTiter-Glo, 72 h; primary and follow-up small molecule screen). It counts as cell-based, human.
For assay [12], the system named is HACAT cells. Put plainly: qHTS cell viability (CellTiter-Glo, 72 h; primary screen), control cell line. Type of assay: cell-based, human.
For assay [13], the system named is CRL-7250 cells. Described as above. It counts as cell-based.
Assay [14] deals with WAGA cells (VP-MCC). As to the kind of experiment: qHTS cell viability (CellTiter-Glo, 72 h; primary and follow-up small molecule screen). It counts as cell-based, human.
Assay [15] deals with MKL-1 cells (VP-MCC). The description is as above. Type of assay: cell-based, human.

“And” between values parts separate entries of the source, which are not always exact repeats. Equal entries are not always repeated. Structures can show the parent of a compound that is named as a salt. Where two headings read alike, the source gives them in different places.

Take `CCC(=O)OC1(c2ccccc2)CCN(C)CC1.Cl`: the Control-MCC in [1] was 35.9859. This molecule came in with an MKL2_AUC in [2] of 404.215. Besides, in [3], the Control-VP-MCC is 58.056 and the VP-MCC_Avg_AUC is on record as 413.6. Besides, in assay [4], the MCC13_AUC is 464.627. For the same molecule, the HEK293T_AUC in assay [5] was determined as 479.823. This molecule also had an MCC_Avg_AUC in assay [6] of 435.67. In assay [7], this molecule yielded a Control-VN-MCC of 13.9158 and a VN-MCC_Avg_AUC of 457.741. For the same molecule, the Control_Avg_AUC in assay [8] is given as 471.656. The molecule further gave a UISO_AUC in assay [9] of 451.795. For the same molecule, the NIH3T3_AUC in [10] worked out at 479.714. For the same molecule, in assay [11], the MCC26_AUC is 456.799. This molecule came in with an HACAT_AUC in assay [12] of 483.91. The same molecule displayed a CRL7250_AUC in assay [13] of 443.177. In assay [14], this molecule displayed a WAGA_AUC of 438.281. This molecule also showed an MKL1_AUC in assay [15] of 398.305.
On to `CNC(C)Cc1ccc2c(c1)OCO2.Cl` (centres unmarked), for which the Control-MCC in assay [1] stood at 54.0945. The same molecule had an MKL2_AUC in assay [2] of 446.935. In [3], the Control-VP-MCC is given as 54.4283 and the VP-MCC_Avg_AUC is 435.364. This molecule showed an MCC13_AUC in [4] of 451.345. The molecule further came in with an HEK293T_AUC in assay [5] of 483.458. Moreover, the MCC_Avg_AUC in assay [6] came out at 435.698. Moreover, in assay [7], the Control-VN-MCC was found to be 53.7607 and the VN-MCC_Avg_AUC worked out at 436.031. In assay [8], this molecule gave a Control_Avg_AUC of 489.792. Moreover, the UISO_AUC in [9] was 441.906. Besides, the NIH3T3_AUC in assay [10] is 493.81. Further, the MCC26_AUC in assay [11] is listed as 414.843. The HACAT_AUC in assay [12] is 490.316. For the same molecule, the CRL7250_AUC in assay [13] stood at 491.585. For the same molecule, in assay [14], the WAGA_AUC is recorded as 422.784. The MKL1_AUC in assay [15] came to 436.372.
In [1], `CC(=O)OC1(c2ccccc2)CCN(CCc2ccccc2)CC1` returned a Control-MCC of 68.5641. Moreover, the MKL2_AUC in assay [2] turned out to be 382.375. In assay [3], this molecule registered a Control-VP-MCC of 82.3602 and a VP-MCC_Avg_AUC of 382.197. The molecule also returned an MCC13_AUC in assay [4] of 419.397. In [5], this molecule returned an HEK293T_AUC of 449.554. Moreover, the MCC_Avg_AUC in assay [6] was 395.993 and 395.994. In assay [7], this molecule came in with a Control-VN-MCC of 54.768 and a VN-MCC_Avg_AUC of 409.79. In assay [8], this molecule registered a Control_Avg_AUC of 464.558. Further, in assay [9], the UISO_AUC was found to be 389.875. In addition, the NIH3T3_AUC in assay [10] was found to be 473.448. Also, in [11], the MCC26_AUC was found to be 420.097. In assay [12], this molecule showed an HACAT_AUC of 477.567. In assay [13], this molecule displayed a CRL7250_AUC of 457.662. The same molecule registered a WAGA_AUC in assay [14] of 388.929. The same molecule registered an MKL1_AUC in [15] of 375.288.
In the case of `COc1cc(CCN)c(OC)cc1Br.Cl`, the Control-MCC in assay [1] stood at 53.3472. Also, the MKL2_AUC in assay [2] worked out at 390.615. In assay [3], this molecule displayed a Control-VP-MCC of 51.4501 and a VP-MCC_Avg_AUC of 402.781. The same molecule showed an MCC13_AUC in assay [4] of 402.391. For the same molecule, the HEK293T_AUC in assay [5] turned out to be 422.838. Moreover, the MCC_Avg_AUC in assay [6] worked out at 400.883. In assay [7], this molecule came in with a Control-VN-MCC of 55.2444 and a VN-MCC_Avg_AUC of 398.986. Also, the Control_Avg_AUC in assay [8] is 454.231. This molecule returned a UISO_AUC in assay [9] of 386.993. Further, the NIH3T3_AUC in assay [10] is given as 468.152. For the same molecule, the MCC26_AUC in [11] is recorded as 407.575. In assay [12], this molecule yielded an HACAT_AUC of 486.493. This molecule also returned a CRL7250_AUC in assay [13] of 439.439. In addition, the WAGA_AUC in assay [14] is 421.438 and 421.439. In assay [15], this molecule displayed an MKL1_AUC of 396.289.
For the molecule `CCc1c2c(nc3ccc(OC(=O)N4CCC(N5CCCCC5)CC4)cc13)-c1cc3c(c(=O)n1C2)COC(=O)[C@]3(O)CC.Cl` [Irinotecan hydrochloride], the Control-MCC in assay [1] was determined as 69.4165. Further, the Control-VP-MCC in assay [3] came out at 114.533. Besides, in [7], the Control-VN-MCC is reported as 24.3005.
`CCOC(=O)N1CCC(=C2c3ccc(Cl)cc3CCc3cccnc32)CC1` [Loratadine] came in with a Control-MCC in assay [1] (NPC library, therapeutic window: Control avg AUC minus MCC avg AUC) of 51.602. This molecule also came in with a Control-VP-MCC in [3] (NPC library, therapeutic window: Control avg AUC minus VP-MCC avg AUC) of 67.0216. The Control-VN-MCC in [7] (NPC library, therapeutic window: Control avg AUC minus VN-MCC avg AUC) worked out at 36.1824.
In the case of `CCC(=O)C(CC(C)N(C)C)(c1ccccc1)c1ccccc1` (centres unmarked) [Methadone hydrochloride], the Control-MCC in assay [1] was determined as 49.7335. Further, in assay [3], the Control-VP-MCC was 55.4471. The molecule also came in with a Control-VN-MCC in assay [7] of 44.0199.
